pIC50: −log10 of the molar value. Like-named read-outs stand apart in the source and are kept apart here. Values belong to the molecule of their own block, whether it stands above or below them.
Columns and labels:
Format in all cases: cell-based
HL-60 (MLL-WT) cells = experiment: Cell proliferation (alamarBlue) HL-60; details: Homo sapiens, HL-60 (MLL-WT), read-out: IC50 proliferation
Procedure: (§1) Cells were seeded in the optimal growth medium at 4000–5000 cells/well in a 96 MTP and cultured 18–24 h before inhibitor treatment.

Jurkat (MLL-WT) cells = experiment: Cell proliferation (alamarBlue) Jurkat; details: Homo sapiens, Jurkat (MLL-WT)
Procedure: as §1

OCI-AML-5 (MLL-WT) cells = experiment: Cell proliferation (alamarBlue) OCI-AML-5; details: Homo sapiens, OCI-AML-5, OCI-AML-5 (MLL-WT), read-out: IC50 proliferation
Procedure: as §1

OCI-AML-3 (MLL-WT) cells = experiment: Cell proliferation (alamarBlue) OCI-AML-3; details: Homo sapiens, OCI-AML-3, OCI-AML-3 (MLL-WT), read-out: IC50 proliferation
Procedure: as §1

MV4-11 (MLL-AF4) cells = experiment: Cell proliferation (alamarBlue) MV4-11; details: Homo sapiens, MV4-11, MV4-11 (MLL-AF4), read-out: IC50 proliferation
Procedure: as §1

RS4;11 (MLL-AF4) cells = experiment: Cell proliferation (alamarBlue) RS4;11; details: Homo sapiens, RS4-11, RS4;11 (MLL-AF4), read-out: IC50 proliferation
Procedure: as §1

SEM (MLL-AF4) cells = experiment: Cell proliferation (alamarBlue) SEM; details: SEM (MLL-AF4), read-out: IC50 proliferation
Procedure: as §1

ML-2 (MLL-AF6) cells = experiment: Cell proliferation (alamarBlue) ML-2; details: ML-2 (MLL-AF6), read-out: IC50 proliferation
Procedure: as §1

MOLM-13 (MLL-AF9) cells = experiment: Cell proliferation (alamarBlue) MOLM-13; details: Homo sapiens, MOLM-13, MOLM-13 (MLL-AF9), read-out: IC50 proliferation
Procedure: as §1

MOLM-14 (MLL-AF9) cells = experiment: Cell proliferation (alamarBlue) MOLM-14; details: Homo sapiens, MOLM-14, MOLM-14 (MLL-AF9), read-out: IC50 proliferation
Procedure: as §1

NOMO-1 (MLL-AF9) cells = experiment: Cell proliferation (alamarBlue) NOMO-1; details: Homo sapiens, NOMO-1, NOMO-1 (MLL-AF9), read-out: IC50 proliferation
Procedure: as §1

[1] = test system: OCI-AML-2 (MLL-AF9) cells; experiment: Cell proliferation (alamarBlue) OCI-AML-2; details: Homo sapiens, OCI-AML2, OCI-AML-2 (MLL-AF9), read-out: IC50 proliferation
Procedure: as §1

KOPN-8 (MLL-ENL) cells = experiment: Cell proliferation (alamarBlue) KOPN-8; details: Homo sapiens, KOPN-8, KOPN-8 (MLL-ENL), read-out: IC50 proliferation
Procedure: as §1

EOL-1 (MLL-TD) cells = experiment: Cell proliferation (alamarBlue) EOL-1; details: Homo sapiens, EOL1, EOL-1 (MLL-TD), read-out: IC50 proliferation
Procedure: as §1

[2] = test system: MV4-11, MOLM-13 and HL-60 cells; experiment: Cell proliferation, all three tested AML cell lines; details: 96 h; all tested cell lines (MV4-11, MOLM-13, HL-60), 4 days of treatment (Fig. 1a); read-out: anti-proliferation IC50s
Procedure: Cells were seeded in the optimal growth medium at 4000–5000 cells/well in a 96 MTP and cultured 18–24 h before inhibitor treatment. Upon treatment with the indicated inhibitor, cells were cultured for 24 h, 96 h, and 168 h and effects on proliferation were determined using alamarBlue Cell Viability Reagent (Thermo Fisher Scientific, Waltham, MA, USA).

HL-60 cells = experiment: CD11b protein expression by flow cytometry, HL-60; details: non-fused HL-60 cell line, 4 and 7 days of treatment
Procedure: (§2) Four thousand cells per well were seeded 24 h before they were treated with the indicated inhibitor in a 96 MTP. After 4 or 7 days of treatment, cells were washed with PBS and stained with CD11b - APC (BioLegend, San Diego, California, USA) and DAPI (Thermo Fisher Scientific, Waltham, Massachusetts, USA) or AnnexinV – FITC (BioLegend, San Diego, California, USA) and PI solution (Sigma-Aldrich St. Louis, Missouri, USA) using the FACS Canto II (BD Biosciences, Heidelberg, Germany) and data was analyzed with FACSDiva software.

[3] = test system: MV4-11, MOLM-13 and HL-60 cells; experiment: Cell cycle analysis (PI, flow cytometry); details: 4 days of treatment (Figure S2)
Procedure: Cells were washed with PBS and fixed overnight at − 20 °C with 70% ethanol. Fixed cells were stained with PI solution (Sigma-Aldrich St. Louis, MO, USA) solution containing RNase A (Qiagen, Hilden, Germany). Fluorescence was measured with FACS Canto II (BD Biosciences, Heidelberg, Germany) flow cytometer and data was analyzed with FACSDiva software.

[4] = test system: MLL-fused cell lines (MV4-11, MOLM-13); experiment: CD11b protein expression by flow cytometry, MLL-fused lines; details: 4 and 7 days of treatment
Procedure: as §2

[5] = 168 h, 7 days of treatment (D7)
[6] = D1, read-out: IC50 proliferation
[7] = D4, read-out: IC50 proliferation
[8] = D7, read-out: IC50 proliferation

pIC50 (HL-60 (MLL-WT) cells; 24 h, 1 day of treatment (D1)): 6.85
pIC50 (HL-60 (MLL-WT) cells; 96 h, 4 days of treatment (D4)): 6.96
pIC50 (HL-60 (MLL-WT) cells; [5]): 6.62
pIC50 (Jurkat (MLL-WT) cells; [6]): 6.85
pIC50 (Jurkat (MLL-WT) cells; [7]): 7.52
pIC50 (Jurkat (MLL-WT) cells; [8]): 7.52
pIC50 (OCI-AML-5 (MLL-WT) cells; D1): 6.80
pIC50 (OCI-AML-5 (MLL-WT) cells; D4): 7.30
pIC50 (OCI-AML-5 (MLL-WT) cells; D7): 7.52
pIC50 (OCI-AML-3 (MLL-WT) cells; D1): 7.05
pIC50 (OCI-AML-3 (MLL-WT) cells; D4): 6.96
pIC50 (OCI-AML-3 (MLL-WT) cells; D7): 6.74
pIC50 (MV4-11 (MLL-AF4) cells; D1): 6.64
pIC50 (MV4-11 (MLL-AF4) cells; D4): 7.15
pIC50 (MV4-11 (MLL-AF4) cells; D7): 6.66
pIC50 (RS4;11 (MLL-AF4) cells; D1): 6.96
pIC50 (RS4;11 (MLL-AF4) cells; D4): 7.05
pIC50 (RS4;11 (MLL-AF4) cells; D7): 7.05
pIC50 (MOLM-13 (MLL-AF9) cells; D1): 7.15
pIC50 (MOLM-13 (MLL-AF9) cells; D4): 7.22
pIC50 (MOLM-13 (MLL-AF9) cells; D7): 7.15
pIC50 (MOLM-14 (MLL-AF9) cells; D1): 7.40
pIC50 (MOLM-14 (MLL-AF9) cells; D4): 7.40
pIC50 (MOLM-14 (MLL-AF9) cells; D7): 7.15
pIC50 ([1]; D1): 7.15
pIC50 ([1]; D4): 6.96
pIC50 ([1]; D7): 7.15
pIC50 [2]: 6.85 to 7.52
Compound: COc1cc(F)ccc1-c1cc(Nc2cc(CS(C)(=N)=O)ccn2)ncc1F (stereo not drawn) [BAY 1251152]
pIC50 (SEM (MLL-AF4) cells; D1): 6.59
pIC50 (SEM (MLL-AF4) cells; D4): 7.05
pIC50 (SEM (MLL-AF4) cells; D7): 6.70
pIC50 (ML-2 (MLL-AF6) cells; D1): 6.96
pIC50 (ML-2 (MLL-AF6) cells; D4): 6.70
pIC50 (ML-2 (MLL-AF6) cells; D7): 6.64
pIC50 (NOMO-1 (MLL-AF9) cells; D1): 6.62
pIC50 (NOMO-1 (MLL-AF9) cells; D4): 7.22
pIC50 (NOMO-1 (MLL-AF9) cells; D7): 7.00
pIC50 (KOPN-8 (MLL-ENL) cells; D1): 6.80
pIC50 (KOPN-8 (MLL-ENL) cells; D4): 6.92
pIC50 (KOPN-8 (MLL-ENL) cells; D7): 6.68
pIC50 (EOL-1 (MLL-TD) cells; D1): 7.15
pIC50 (EOL-1 (MLL-TD) cells; D4): 7.52
pIC50 (EOL-1 (MLL-TD) cells; D7): 7.22
CD11b level (HL-60 cells): treatment did
cell cycle effect [3]: decrease of cells in S and G2/M phase with increasing concentrations

Compound: Cc1sc2c(c1C)C(c1ccc(Cl)cc1)=N[C@@H](CC(=O)Nc1ccc(O)cc1)c1nnc(C)n1-2 [OTX015]
pIC50 (HL-60 (MLL-WT) cells; 24 h, 1 day of treatment (D1)): < 5.00
pIC50 (HL-60 (MLL-WT) cells; 96 h, 4 days of treatment (D4)): 7.15
pIC50 (HL-60 (MLL-WT) cells; [5]): 6.57
pIC50 (Jurkat (MLL-WT) cells; [6]): < 5.00
pIC50 (Jurkat (MLL-WT) cells; [7]): 7.00
pIC50 (Jurkat (MLL-WT) cells; [8]): 6.77
pIC50 (OCI-AML-5 (MLL-WT) cells; D1): < 5.00
pIC50 (OCI-AML-5 (MLL-WT) cells; D4): 7.15
pIC50 (OCI-AML-5 (MLL-WT) cells; D7): 7.10
pIC50 (OCI-AML-3 (MLL-WT) cells; D1): < 5.00
pIC50 (OCI-AML-3 (MLL-WT) cells; D4): 7.40
pIC50 (OCI-AML-3 (MLL-WT) cells; D7): 7.15
pIC50 (MV4-11 (MLL-AF4) cells; D1): < 5.00
pIC50 (MV4-11 (MLL-AF4) cells; D4): 6.85
pIC50 (MV4-11 (MLL-AF4) cells; D7): 6.74
pIC50 (RS4;11 (MLL-AF4) cells; D1): < 5.00
pIC50 (RS4;11 (MLL-AF4) cells; D4): 6.77
pIC50 (RS4;11 (MLL-AF4) cells; D7): 6.82
pIC50 (SEM (MLL-AF4) cells; D1): < 5.00
pIC50 (SEM (MLL-AF4) cells; D4): 7.15
pIC50 (SEM (MLL-AF4) cells; D7): 7.10
pIC50 (ML-2 (MLL-AF6) cells; D1): < 5.00
pIC50 (ML-2 (MLL-AF6) cells; D4): 6.41
pIC50 (ML-2 (MLL-AF6) cells; D7): 6.74
pIC50 (MOLM-13 (MLL-AF9) cells; D1): < 5.00
pIC50 (MOLM-13 (MLL-AF9) cells; D4): 7.52
pIC50 (MOLM-13 (MLL-AF9) cells; D7): 6.96
pIC50 (MOLM-14 (MLL-AF9) cells; D1): < 5.00
pIC50 (MOLM-14 (MLL-AF9) cells; D4): 7.40
pIC50 (MOLM-14 (MLL-AF9) cells; D7): 7.22
pIC50 (NOMO-1 (MLL-AF9) cells; D1): < 5.00
pIC50 (NOMO-1 (MLL-AF9) cells; D4): 8.00
pIC50 (NOMO-1 (MLL-AF9) cells; D7): 8.00
pIC50 ([1]; D1): < 5.00
pIC50 ([1]; D7): 7.10
pIC50 (KOPN-8 (MLL-ENL) cells; D1): < 5.00
pIC50 (KOPN-8 (MLL-ENL) cells; D4): 6.52
pIC50 (KOPN-8 (MLL-ENL) cells; D7): 6.49
pIC50 (EOL-1 (MLL-TD) cells; D1): < 5.00
pIC50 (EOL-1 (MLL-TD) cells; D4): 7.52
pIC50 (EOL-1 (MLL-TD) cells; D7): 7.40
pIC50 [2]: 6.85 to 7.52
CD11b protein level [4]: increased CD11b protein level in a dose and time-dependent manner
CD11b level (HL-60 cells): treatment did
cell cycle effect [3]: decrease of cells in S and G2/M phase with increasing concentrations

— PMC6599250, “Functional diversity of inhibitors tackling the differentiation blockage of MLL-rearranged leukemia” (Journal of Hematology & Oncology, 2019)
